Values of other authors in patent publication US20080103103A1, “Reagents and methods to treat ocular diseases and infection” (priority 2006, published 2008).

Tests used:
adenovirus [1] = system: adenovirus
HSV = HSV early onset
adenovirus [2] = system: adenovirus; remark: listed apart in the source
adenovirus [3] = settings: 0.2%
adenovirus [4] = settings: 0.5%
adenovirus [5] = settings: 3%, ocular application

In the case of `Nc1nc2c(ncn2COCCO)c(=O)[nH]1` [Acyclovir], the effectiveness against adenovirus (adenovirus [1]) is listed as “not adenovirus” and the “effectiveness against HSV” value (HSV) is listed as “effective”.

In the case of `O=C(O[C@@H]1Cc2c(O)cc(O)cc2O[C@@H]1c1cc(O)c(O)c(O)c1)c1cc(O)c(O)c(O)c1` [EGCG, (2R,3R)-2-(3,4,5-Trihydroxyphenyl)-3,4-dihydro-1(2H)-benzopyran-3,5,7-triol 3-(3,4,5-trihydroxybenzoate)], the “activity against adenovirus in vitro (viral load)” value (adenovirus [2]; in vitro) is listed as “greatly reducing the viral load” and the “concentration effective for in vitro cultures” value (adenovirus [2]; in vitro cultures, adenovirus) is listed as 0.005%.

In the case of `Nc1ccn(C[C@@H](CO)OCP(=O)(O)O)c(=O)n1` [cidofovir], the “result in clinical trials” value (adenovirus [3]) is listed as “failed” and the “result in animal studies” value (adenovirus [4]) is listed as “some positive results”.

For `CC(=O)OCC(CCn1cnc2cnc(N)nc21)COC(C)=O` [famciclovir], the effectiveness against adenovirus (adenovirus [1]) is listed as “not adenovirus” and the “effectiveness against HSV” value (HSV) is listed as “effective”.

In the case of `Nc1nc(O)c2ncn(COC(CO)CO)c2n1` [gancicolovir], the activity against adenovirus (adenovirus [5]) is given as “very minor activity”.
